# Reference: article PMC9027509, “Modulation of Paracellular-like Drug Transport across an Artificial Biomimetic Barrier by Osmotic Stress-Induced Liposome Shrinking” (Pharmaceutics, 2022)
# What was measured:
# Type in all cases: in vitro ADME
# [1] = Permeation across lipid-free support sheets (support layer of PermeaPad), reversed Franz cell setup; details: for Papp: 300 mOsm PBS pH 6.5, 37 °C, mean ± SD, read-out: Permeability across support layer; for Papp, mean: supplement raw data, Support sheet, 30 min pretreatment, mean of replicates A-C
# Experimental: (§1) During these studies, phosphate-buffered saline (PBS) was used as the acceptor medium and for the preparation of donor media for permeation experiments. The liposomes were allowed to form within the barrier by soaking the dry sandwich barrier (PermeaPad) in hypo-, iso-, or hyper-osmotic media and compared to the PBS by using NaCl solutions of different osmolalities. PBS was prepared by dissolving 35 mM sodium phosphate dibasic dihydrate and 75 mM sodium phosphate monobasic monohydrate in water. Then, the pH was adjusted to 6.5 by adding 0.1 M HCl or 0.1 M NaOH. Finally, the osmolality was measured on a semi-micro osmometer K-7400 from KNAUER Wissenschaftliche Geräte GmbH (Berlin, Germany), and NaCl was added to obtain an osmolality of 300 mOsm. Solutions of NaCl were prepared by dissolving NaCl in purified water to obtain osmolalities of 50, 150, 250, 300, 350, 450 and 900 mOsm.
# (§2) The acyclovir solution was prepared by dissolving 1 mg/mL acyclovir in PBS. […] The stock of calcein was prepared by dissolving 2.8 g calcein in 30 mL water before adjusting the pH to 6.5 with 4 M NaOH (~20 mL), and the osmolality of the stock was adjusted to 300 mOsm with NaCl. […] The saturated celecoxib suspensions were prepared by suspending 1 mg/mL of celecoxib in PBS. The suspension was then sonicated for 10 min and left in the shaking water bath at 50 rpm and 37 °C for 40 h before starting the permeation experiments.
# (§3) For the permeation experiments, we used the reversed Franz cell setup from Permegear (Hellertown, PA, USA) with the donor in the bottom chamber (8 mL) and the acceptor in the top chamber (2 mL). The two compartments were either separated by PermeaPad® or a sandwich consisting of two pieces of the support sheet representing the support layer of PermeaPad® (with no lipids). The barriers were kindly donated by InnoMe GmbH (Espelkamp, Germany). A cylindrical stir bar (2 mm diameter × 8 mm length) was spinning at 500 rpm at the bottom of the donor compartment. The temperature of the Franz cells was kept constant at 37 °C by a circulating water system.
# (§4) Prior to the permeation experiments, the barrier was exposed to NaCl solutions ranging from 50 to 900 mOsm for 30 min by simply adding 2 mL of the NaCl solution to the top compartment. The NaCl solutions were removed from the top compartment right before initiating the permeation experiments.
# (§5) For the permeation experiments, the system was kept assembled after the NaCl pretreatment, and the bottom compartment was filled with 8 mL of donor solution/suspension, followed by the addition of 2 mL PBS to the top compartment. […] All samples were replaced by the same volume of PBS to keep the acceptor volume constant and to maintain sink conditions. Before and after experiments, donor samples were withdrawn to keep track of the mass balance (see the Supplementary Materials).
# (§6) The column temperature was 40 °C during measurement. […] All quantification was with a freshly prepared calibration curve in the relevant range.
# (§7) The flux was determined by plotting the cumulative amount of a drug compound permeation (dQ) normalized to the permeation area (A) (1 cm^2) against time (dt), with the flux (J) equal to the slope. (1) J=dQ/A·dt
# (§8) We assumed that the change in the donor concentration over the experiments was negligible. The apparent permeability (Papp) was equal to the flux normalized to the starting donor concentration (C0). (2) Papp=J/C0
# [2] = Permeability across the lipid layer of PermeaPad calculated from Papp and Psup (Equation 3); details: for Permeation across lipid layer, fold higher with 50 mOsm/kg pretreatment: 50 mOsm/kg versus 300 mOsm/kg NaCl pretreatment; for Papp: not told, calculated 1/Papp=1/Plip+1/Psup
# Source text: The permeation across the lipid layer (Plip) has been calculated using Equation (3) (Di Cagno et al., 2015). The inverse of each permeability constant represents the resistance. The sum of the resistance of the lipid layer and the support layer (Psup) composing the PermeaPad® barrier gives the resistance of the whole barrier. (3) 1/Papp=1/Plip+1/Psup
# [3] = Permeation across PermeaPad barrier, reversed Franz cell setup, after NaCl pretreatment; details: for Increase of apparent permeability across the PermeaPad® barrier upon hypo-osmotic pretreatment: hypo-osmotic pretreatment (soaking in hypotonic medium); for Papp: permeation in 300 mOsm PBS pH 6.5, 37 °C, mean ± SD, read-out: Permeability across PermeaPad®; for Increase of permeability in PBS across PermeaPad®: pretreated with NaCl solutions of 50, 150, or 900 mOsm/kg compared to 300 mOsm/kg; for Change of permeability across PermeaPad® after hyper-osmotic pretreatment (in words): pretreatment with 900 mOsm/kg NaCl solution versus 300 mOsm, p < 0.05; for Papp, mean: supplement raw data, mean of replicates A-C
# Experimental: as §1, §2, §3, §4, §5, §6, §7, §8
# [4] = pH 6.5, pretreated 30 min with 50 mOsm/kg NaCl solution
# [5] = pH 6.5, pretreated 30 min with 300 mOsm/kg NaCl solution
# [6] = pH 6.5, pretreatment with 50 mOsm/kg NaCl solution
# [7] = pH 6.5, pretreatment with 300 mOsm/kg NaCl solution
# [8] = pH 6.5, barrier pretreated 30 min with 50 mOsm/kg NaCl solution
# [9] = pH 6.5, barrier pretreated 30 min with 300 mOsm/kg NaCl solution
# [10] = PermeaPad, osmolality 50, 30 min pretreatment
# [11] = PermeaPad, osmolality 150, 30 min pretreatment
# [12] = PermeaPad, osmolality 300, 30 min pretreatment
# [13] = PermeaPad, osmolality 450, 30 min pretreatment
# [14] = PermeaPad, osmolality 900, 30 min pretreatment
"Papp [1, 4]","Papp [1, 5]","Papp, mean ([1]; osmolality 50)","Papp, mean ([1]; osmolality 300)","Permeation across lipid layer, fold higher with 50 mOsm/kg pretreatment [2]","Papp [2, 6]","Papp [2, 7]",Increase of apparent permeability across the PermeaPad® barrier upon hypo-osmotic pretreatment [3],"Papp [3, 8]","Papp [3, 9]",Increase of permeability in PBS across PermeaPad® [3],Change of permeability across PermeaPad® after hyper-osmotic pretreatment (in words) [3],"Papp, mean [3, 10]","Papp, mean [3, 11]","Papp, mean [3, 12]","Papp, mean [3, 13]","Papp, mean [3, 14]",Compound,further results
32.7 ± 1.87 ×10⁻⁶ cm/s,33.2 ± 1.79 ×10⁻⁶ cm/s,32.67 10-6,33.19 10-6,1.7 fold,4.71 ± 0.78 ×10⁻⁶ cm/s,2.74 ± 0.38 ×10⁻⁶ cm/s,~1.7 fold,4.07 ± 0.6 ×10⁻⁶ cm/s,2.52 ± 0.33 ×10⁻⁶ cm/s,1.5–2 fold,increased significantly,4.068 10-6,3.864 10-6,2.527 10-6,3.76 10-6,4.675 10-6,"Nc1nc2c(ncn2COCCO)c(=O)[nH]1 [Acyclovir, acyclovir]",–
2.51 ± 0.3 ×10⁻⁶ cm/s,2.84 ± 0.54 ×10⁻⁶ cm/s,2.509 10-6,2.835 10-6,2.0 fold,0.8 ± 0.07 ×10⁻⁶ cm/s,0.4 ± 0.02 ×10⁻⁶ cm/s,approximately 2.0 fold,0.61 ± 0.04 ×10⁻⁶ cm/s,0.35 ± 0.01 ×10⁻⁶ cm/s,1.5–2 fold,increased significantly,0.6055 10-6,0.6047 10-6,0.3505 10-6,0.3884 10-6,0.5604 10-6,"O=C(O)CN(CC(=O)O)Cc1cc2c(cc1O)Oc1cc(O)c(CN(CC(=O)O)CC(=O)O)cc1C21OC(=O)c2ccccc21 [Calcein, calcein]","Difference in permeation across PermeaPad® between 2 and 30 min pretreatment ([3]; 50 and 300 mOsm/kg NaCl solutions, p > 0.05): no significant differences; Papp, mean ([3]; PermeaPad (2 min pretreatment), osmolality 50): 0.5524 10-6; Papp, mean ([3]; PermeaPad (2 min pretreatment), osmolality 300): 0.3418 10-6; Papp, mean ([3]; PermeaPad, osmolality 250, 30 min pretreatment): 0.3074 10-6; Papp, mean ([3]; PermeaPad, osmolality 350, 30 min pretreatment): 0.3633 10-6"
46.3 ± 2.23 ×10⁻⁶ cm/s,46.2 ± 2.74 ×10⁻⁶ cm/s,46.3348 10-6,46.16 10-6,–,34.2 ± 18.1 ×10⁻⁶ cm/s,26.2 ± 11.2 ×10⁻⁶ cm/s,–,17.9 ± 7.48 ×10⁻⁶ cm/s,15.9 ± 4.99 ×10⁻⁶ cm/s,–,–,17.95 10-6,12.5 10-6,15.92 10-6,16.62 10-6,17.85 10-6,"Cc1ccc(-c2cc(C(F)(F)F)nn2-c2ccc(S(N)(=O)=O)cc2)cc1 [Celecoxib, celecoxib]",Change of permeability across PermeaPad® with different pretreatments (in words) ([3]; NaCl pretreatment solutions from 50 to 900 mOsm/kg compared to 300 mOsm/kg): no significant changes; Change of permeation across PermeaPad® upon hypo-osmotic pretreatment (in words) ([3]; hypo-osmotic pretreatment): remained unchanged
